Values quoted from earlier work in PMC9301920, “Physiologically Based Toxicokinetic Modeling of Bisphenols in Zebrafish (Danio rerio) Accounting for Variations in Metabolic Rates, Brain Distribution, and Liver Accumulation” (Environmental Science & Technology, 2022).
pEC50: −log10 of the molar value.

Molecular target: Estrogen receptor (ER)
Set-up: method as in Kitamura et al. 2005
Conditions: ERE-luciferase reporter assay, MCF-7 cells; ref Kitamura et al. 2005; cited from earlier work

For `Oc1ccc(C2(c3ccc(O)cc3)CCCCC2)cc1` [BPZ, bisphenol Z], the pEC50 is given as 6.68.
